According to US9187475B2, “Pyrrolopyridinone derivatives as TTX-S blockers” (RaQualia Pharma Inc., priority 2012, dated 2015):

Key:
Format in all cases: cell-based
human NaV1.3 channels = target: T1, human NaV1.3 channels (Homo sapiens, UniProt Q9NY46); assay: FRET assay, HEK293 cells expressing human NaV1.3 channels; settings: read-out: activities against Nav1.3
T1 construct: expressed in transfected cells; host or cells: HEK293
Procedure: (§1) The ability of the pyrrolopyridinone derivatives of the formula (I) to inhibit the NaV1.3, Nav1.7 and Nav1.5 channels is measured by Fluorescence Resonance Energy Transfer (FRET) assay and electrophysiology assay described below.
(§2) This screen is used to determine the effects of compounds on human NaV1.3, human Nav1.7, and human Nav1.5 channels, utilising electrical field stimulation (EFS) system in 96-well plate format on FDSS (Hamamatsu Photonics) platform. The change of membrane potential is monitored with FRET dye pair, oxonol (DiSBAC2(3)) and coumarin (CC2-DMPE).
(§3) Each HEK293 cells expressing human NaV1.3 channels and HEK293 cells expressing human NaV1.5 channels are grown in T225 flasks, in a 5% CO2 humidified incubator to about 80% confluence. Media composition consists of Dulbecco's Modified Eagle Medium (high glucose), 10% FCS, 100 units/mL penicillin, 100 microgram/mL streptomycin and 500 microgram/mL Geneticin™. […]
(§4) The data are analyzed and reported as normalized ratios of intensities measured at […]. […]
(§5) This analysis is performed using a computerized specific program designed for FDSS generated data. Fluorescence ratio values are plotted using XLfit™ to determine an IC50 value for each compound.

human Nav1.7 channels = target: T2, human Nav1.7 channels (Homo sapiens, UniProt Q15858); assay: FRET assay, CHO cells expressing human NaV1.7 channels; settings: read-out: activities against Nav1.7
T2 construct: expressed in transfected cells; host or cells: CHO
Procedure: as §1, §2
CHO cells expressing human NaV1.7 channels are grown in T225 flasks, in a 5% CO2 humidified incubator to about 80% confluence. Media composition consists of HAM/F12 with GlutaMAX™ I, 10% FCS, 100 units/mL penicillin and 100 microgram/mL hygromycin. […]
as §4, §5

human Nav1.5 channels = target: T3, human Nav1.5 channels (Homo sapiens, UniProt Q14524); assay: FRET assay, HEK293 cells expressing human NaV1.5 channels; settings: read-out: activities against Nav1.5
T3 construct: expressed in transfected cells; host or cells: HEK293
Procedure: as §1, §2, §3, §4, §5

human Nav1.3 (hSCN3A) = target: T4, human Nav1.3 (hSCN3A) (Homo sapiens, UniProt Q9NY46); assay: Electrophysiology assay (whole cell patch clamp), human Nav1.3 (hSCN3A) expressing HEK293 cells; settings: dissociation constant for the inactivated state (Kinact); read-out: activities (Ki) against NaV1.3
T4 construct: expressed in transfected cells; host or cells: HEK293
Procedure: (§6) Whole cell patch clamp recording is used to assess the efficacy or selectivity of Na channel blocker on human Nav1.3 (hSCN3A) expressing HEK293 cells or human Nav1.7 (hSCN9A) expressing CHO cells. Human Nav1.3 expressing HEK293 cells are grown in growth media which contain: Dulbecco's […] (DMEM), 10% heat-inactivated fetal bovine serum (FBS) (Hyclone Laboratories Inc), 100 microgram/mL penicillin/100 U/mL streptomycin, 150 microgram/mL Zeocin™, and 3 microgram/mL Geneticin. Human […], expressing CHO cells are grown in growth media which contain: HAM/F-12, 9% heat-inactivated FBS (Hyclone Laboratories Inc), and 100 microgram/mL penicillin/100 U/mL streptomycin, and 100 microgram/mL hygromycin.
(§7) Na channel expressing cells are dissociated by 0.05 trypsin-EDTA, and then seeded on cover glass for 24 to 48 hr. […]
(§8) The normalized steady-state inactivation curve is constructed using 2 sec (for vehicle) or 60 sec (for drugs) conditioning pulse to different potentials followed immediately by the test pulse to −10 mV. […] The affinity of drugs to resting state of Na channels (Kresting or Kt) is assessed by 30 msec test pulse from a negative holding potential of −120 or −130 mV, where virtually all channels are in the resting state. Kr value is calculated by a conventional 1:1 binding model: Kresting(Kr)={[drug]Imax,drug/(Imax,control−Imax,drug)} [Math.2] […]

human Nav1.7 (hSCN9A) = target: T5, human Nav1.7 (hSCN9A) (Homo sapiens, UniProt Q15858); assay: Electrophysiology assay (whole cell patch clamp), human Nav1.7 (hSCN9A) expressing CHO cells; settings: dissociation constant for the inactivated state (Kinact); read-out: activities (Ki) against NaV1.7
T5 construct: expressed in transfected cells; host or cells: CHO
Procedure: as §6, §7, §8

T2 sequence (Q15858 whole entry): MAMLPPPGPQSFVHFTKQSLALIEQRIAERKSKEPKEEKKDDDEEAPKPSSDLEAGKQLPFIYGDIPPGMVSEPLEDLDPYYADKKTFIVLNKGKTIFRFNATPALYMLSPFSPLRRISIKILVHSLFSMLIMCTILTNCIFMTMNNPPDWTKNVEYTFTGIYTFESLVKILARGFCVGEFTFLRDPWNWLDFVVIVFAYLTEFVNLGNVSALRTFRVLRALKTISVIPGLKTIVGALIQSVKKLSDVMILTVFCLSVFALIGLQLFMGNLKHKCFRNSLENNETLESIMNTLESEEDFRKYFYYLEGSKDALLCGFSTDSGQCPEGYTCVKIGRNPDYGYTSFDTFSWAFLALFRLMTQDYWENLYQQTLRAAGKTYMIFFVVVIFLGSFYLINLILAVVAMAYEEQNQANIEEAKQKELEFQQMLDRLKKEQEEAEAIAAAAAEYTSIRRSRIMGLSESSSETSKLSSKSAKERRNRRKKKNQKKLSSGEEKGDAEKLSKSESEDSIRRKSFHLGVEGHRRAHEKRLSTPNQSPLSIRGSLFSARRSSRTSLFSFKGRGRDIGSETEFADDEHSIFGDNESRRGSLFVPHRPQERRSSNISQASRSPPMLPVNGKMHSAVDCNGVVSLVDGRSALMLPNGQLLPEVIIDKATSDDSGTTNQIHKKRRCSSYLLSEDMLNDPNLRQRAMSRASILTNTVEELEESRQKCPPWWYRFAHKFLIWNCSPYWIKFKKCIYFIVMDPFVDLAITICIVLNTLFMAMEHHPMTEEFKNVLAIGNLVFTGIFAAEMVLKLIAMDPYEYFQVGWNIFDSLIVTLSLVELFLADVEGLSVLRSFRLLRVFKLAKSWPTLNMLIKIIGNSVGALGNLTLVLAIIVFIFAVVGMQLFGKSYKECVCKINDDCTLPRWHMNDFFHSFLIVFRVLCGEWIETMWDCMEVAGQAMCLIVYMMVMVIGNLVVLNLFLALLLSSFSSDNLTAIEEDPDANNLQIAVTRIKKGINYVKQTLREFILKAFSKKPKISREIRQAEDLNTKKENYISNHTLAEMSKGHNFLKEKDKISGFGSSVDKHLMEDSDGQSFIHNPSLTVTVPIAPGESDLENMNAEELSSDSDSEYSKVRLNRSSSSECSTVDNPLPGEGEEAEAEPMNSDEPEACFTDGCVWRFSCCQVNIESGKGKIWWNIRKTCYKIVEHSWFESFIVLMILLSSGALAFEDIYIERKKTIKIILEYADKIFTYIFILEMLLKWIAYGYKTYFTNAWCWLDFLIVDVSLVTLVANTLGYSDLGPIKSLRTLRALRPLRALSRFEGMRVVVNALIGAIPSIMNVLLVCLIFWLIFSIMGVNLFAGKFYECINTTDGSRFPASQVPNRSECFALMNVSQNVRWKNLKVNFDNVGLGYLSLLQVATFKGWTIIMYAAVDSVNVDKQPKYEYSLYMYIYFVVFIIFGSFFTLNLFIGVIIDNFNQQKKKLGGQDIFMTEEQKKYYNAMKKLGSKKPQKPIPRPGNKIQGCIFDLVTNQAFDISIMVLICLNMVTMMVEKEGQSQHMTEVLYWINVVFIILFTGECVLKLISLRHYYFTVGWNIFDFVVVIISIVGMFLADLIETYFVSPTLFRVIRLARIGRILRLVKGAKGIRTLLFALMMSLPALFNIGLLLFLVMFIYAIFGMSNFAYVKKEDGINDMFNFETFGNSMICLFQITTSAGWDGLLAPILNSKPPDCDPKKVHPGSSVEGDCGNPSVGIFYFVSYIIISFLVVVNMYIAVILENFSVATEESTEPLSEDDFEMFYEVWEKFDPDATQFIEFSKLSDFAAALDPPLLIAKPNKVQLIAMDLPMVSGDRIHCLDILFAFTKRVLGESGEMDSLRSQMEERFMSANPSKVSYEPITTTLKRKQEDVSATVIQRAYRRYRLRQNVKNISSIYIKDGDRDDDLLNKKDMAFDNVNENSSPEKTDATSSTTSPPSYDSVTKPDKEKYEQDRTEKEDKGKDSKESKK
T5 sequence (Q15858 whole entry): as above
T1 sequence (Q9NY46 whole entry): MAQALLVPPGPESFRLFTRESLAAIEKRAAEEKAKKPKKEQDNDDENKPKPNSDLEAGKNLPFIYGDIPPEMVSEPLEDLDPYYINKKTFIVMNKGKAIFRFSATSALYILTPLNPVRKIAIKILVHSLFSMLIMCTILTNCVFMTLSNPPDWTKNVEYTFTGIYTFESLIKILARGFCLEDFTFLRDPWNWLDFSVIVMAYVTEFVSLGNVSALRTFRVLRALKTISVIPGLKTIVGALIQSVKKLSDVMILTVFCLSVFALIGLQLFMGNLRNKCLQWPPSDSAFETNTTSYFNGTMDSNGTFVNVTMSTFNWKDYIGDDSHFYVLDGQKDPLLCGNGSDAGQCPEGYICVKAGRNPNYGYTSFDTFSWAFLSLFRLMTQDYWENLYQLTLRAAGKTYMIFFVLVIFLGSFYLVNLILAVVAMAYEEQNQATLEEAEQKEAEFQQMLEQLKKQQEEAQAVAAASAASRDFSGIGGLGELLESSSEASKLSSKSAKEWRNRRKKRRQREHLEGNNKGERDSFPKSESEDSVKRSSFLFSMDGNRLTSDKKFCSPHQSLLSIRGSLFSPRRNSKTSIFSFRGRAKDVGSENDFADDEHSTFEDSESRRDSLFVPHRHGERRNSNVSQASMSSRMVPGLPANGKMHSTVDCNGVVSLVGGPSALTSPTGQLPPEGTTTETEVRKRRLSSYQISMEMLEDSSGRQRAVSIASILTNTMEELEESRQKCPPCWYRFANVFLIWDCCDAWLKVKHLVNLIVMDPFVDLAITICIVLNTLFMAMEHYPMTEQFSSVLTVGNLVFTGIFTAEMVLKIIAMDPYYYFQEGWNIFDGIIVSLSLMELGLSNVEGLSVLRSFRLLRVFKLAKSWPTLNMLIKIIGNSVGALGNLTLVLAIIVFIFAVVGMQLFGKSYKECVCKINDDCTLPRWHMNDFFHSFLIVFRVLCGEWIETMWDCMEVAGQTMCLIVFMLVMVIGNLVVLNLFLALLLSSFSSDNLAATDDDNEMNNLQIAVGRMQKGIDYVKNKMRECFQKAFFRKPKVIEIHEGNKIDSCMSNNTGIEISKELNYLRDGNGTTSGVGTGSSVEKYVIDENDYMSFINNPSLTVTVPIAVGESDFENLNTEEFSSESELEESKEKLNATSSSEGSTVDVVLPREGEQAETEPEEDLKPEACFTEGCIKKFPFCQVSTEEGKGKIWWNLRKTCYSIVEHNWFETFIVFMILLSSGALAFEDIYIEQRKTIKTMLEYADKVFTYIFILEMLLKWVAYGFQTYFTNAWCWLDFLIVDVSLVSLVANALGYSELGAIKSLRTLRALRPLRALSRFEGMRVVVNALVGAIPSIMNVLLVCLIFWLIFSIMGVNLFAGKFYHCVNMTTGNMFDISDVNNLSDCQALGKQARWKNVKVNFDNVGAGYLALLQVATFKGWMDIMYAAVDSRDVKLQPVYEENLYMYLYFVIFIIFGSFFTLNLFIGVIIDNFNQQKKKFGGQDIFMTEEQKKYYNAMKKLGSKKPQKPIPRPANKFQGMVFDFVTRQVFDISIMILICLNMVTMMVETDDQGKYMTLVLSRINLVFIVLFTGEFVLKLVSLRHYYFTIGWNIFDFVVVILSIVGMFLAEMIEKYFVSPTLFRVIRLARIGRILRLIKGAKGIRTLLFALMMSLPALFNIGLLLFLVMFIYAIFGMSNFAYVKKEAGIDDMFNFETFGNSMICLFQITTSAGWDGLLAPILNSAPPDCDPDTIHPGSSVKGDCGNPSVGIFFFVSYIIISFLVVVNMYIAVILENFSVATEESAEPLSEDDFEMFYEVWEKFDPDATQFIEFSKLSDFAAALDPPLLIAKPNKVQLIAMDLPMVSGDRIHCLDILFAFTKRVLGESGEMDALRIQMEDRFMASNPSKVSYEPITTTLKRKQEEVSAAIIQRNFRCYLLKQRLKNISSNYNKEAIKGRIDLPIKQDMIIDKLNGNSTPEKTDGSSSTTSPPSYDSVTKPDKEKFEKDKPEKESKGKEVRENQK
T4 sequence (Q9NY46 whole entry): as above

Row | IC50 (human NaV1.3 channels) | IC50 (human Nav1.7 channels) | Ki (human Nav1.3 (hSCN3A)) | Ki (human Nav1.7 (hSCN9A)) | Structure (SMILES) | IC50 (human Nav1.5 channels)
1 | 440 nM | 1100 nM | – | – | CC(=O)Nc1nccc2c1CN(C(C)c1cnc(OCC(F)(F)F)c(C)c1)C2=O (single isomer, unassigned) [Example 2, N-(2-(1-(5-methyl-6-(2,2,2-trifluoroethoxy)pyridin-3-yl)ethyl)-1-oxo-2,3-dihydro-1H-pyrrolo[3,4-c]pyridin-4-yl)acetamide] | > 30000 nM
2 | – | – | 140 nM | 91 nM | Cc1cc(C(C)N2Cc3c(ccnc3NC(=O)C(C)C)C2=O)cnc1OCC(F)(F)F (single isomer, unassigned) [Example 3, N-(2-(1-(5-methyl-6-(2,2,2-trifluoroethoxy)pyridin-3-yl)ethyl)-1-oxo-2,3-dihydro-1H-pyrrolo[3,4-c]pyridin-4-yl)isobutyramide] | –
